In US12617773B2, “Azetidin-3-ylmethanol derivatives as CCR6 receptor modulators” (Idorsia Pharmaceuticals Ltd, priority 2020, dated 2026) one finds IC50 data, which are given here for 44 compounds.

This test deals with T1, human CCR6 (Homo sapiens, UniProt P51684).
T1 construct: expressed in transfected cells; host or cells: HEK-293
T1 sequence (P51684 1-374): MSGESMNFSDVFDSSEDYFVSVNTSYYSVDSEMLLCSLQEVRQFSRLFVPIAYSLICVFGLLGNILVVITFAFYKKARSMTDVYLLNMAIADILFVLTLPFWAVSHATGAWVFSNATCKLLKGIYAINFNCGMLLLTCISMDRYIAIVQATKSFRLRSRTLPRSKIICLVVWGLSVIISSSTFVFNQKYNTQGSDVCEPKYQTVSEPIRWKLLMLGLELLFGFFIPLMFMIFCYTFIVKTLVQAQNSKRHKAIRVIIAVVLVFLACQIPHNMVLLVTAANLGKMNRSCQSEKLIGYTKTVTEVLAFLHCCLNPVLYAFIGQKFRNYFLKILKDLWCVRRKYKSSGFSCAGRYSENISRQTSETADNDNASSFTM
Description: FLIPR assay (inhibition of CCL20-induced calcium signal). The test is classed as cell-based. Particulars: HEK-293 cells expressing human CCR6; mean values where determined several times; read-out: FLIPR IC50. A digest of the protocol: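 IC50 values come from baseline-corrected peak calcium fluorescence after agonist. The agonist was CCL20 at 10 nM final, added to engineered human CCR6 HEK-293 cells following a 30-min, room-temperature, dark preincubation with serially diluted compound. Readings were taken in a fluorometric imaging plate reader.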
On to `Cc1cc(C(O)C#Cc2cncc([C@@](O)(c3ccc(C(C)C)cc3)C3(C)CN(C)C3)c2)nn1C` (some centres unmarked) [Example 41], for which the concentration for half-maximal inhibition (IC50) amounted to 133 nM. Regarding `CC(C)c1ccc([C@](O)(c2cncc(N3CCC4(CCCCC4)C3=O)c2)C2(C)CN(C)C2)cc1` [Example 215], the half-maximal inhibitory concentration (IC50) came to 50.9 nM. `Cc1cc(C(O)CCc2cncc([C@@](O)(c3ccc(C(C)C)cc3)C3(C)CN(C)C3)c2)nn1C` (some centres unmarked) [Example 76]: the IC50 worked out at 627 nM.

Take `CC(C)c1ccc([C@](O)(c2cncc(-c3noc(C4(O)CCC4)n3)c2)C2(C)CN(C)C2)cc1` [Example 129]: the IC50 was determined as 35.9 nM.

Regarding `CC(C)c1ccc([C@](O)(c2cncc(CCC3(O)CCC3)c2)C2(C)CN(C)C2)cc1` [Example 56], the half-maximal inhibitory concentration (IC50) is 61 nM. In the case of `CC(C)c1ccc([C@](O)(c2cncc(-c3noc(C4(C)CC(=O)N(C)C4)n3)c2)C2(C)CN(C)C2)cc1` (single isomer, unassigned) [Example 365], the IC50 came to 147 nM. The figure for `CC(C)(C)N1CC(C)([C@](O)(c2ccc(OC(F)(F)F)cc2)c2cncc(N3CCCC3)c2)C1` [Example 12, (R)-(1-tert-Butyl-3-methyl-azetidin-3-yl)-(5-pyrrolidin-1-yl-pyridin-3-yl)-(4-trifluoromethoxy-phenyl)-methanol] is 73.5 nM; for `CC(C)c1c(F)cc([C@](O)(c2cncc(-c3noc(C(C)(C)O)n3)c2)C2(C)CN(C)C2)cc1F` [Example 560] it is 74.6 nM.

On to `CC(C)c1ccc([C@](O)(c2cncc(C#CC(C)(O)c3ccn(C)n3)c2)C2(C)CN(C)C2)cc1` (single isomer, unassigned) [Example 404], for which the IC50 was found to be 164 nM. With `CC(C)c1ccc([C@](O)(c2cncc(-c3noc(C(C)(C)C4CCOCC4)n3)c2)C2(C)CN(C)C2)cc1` [Example 127], the IC50 was 32.4 nM. Consider `Cc1nc(C(C)(O)C#Cc2cncc([C@@](O)(c3ccc(C(C)C)cc3)C3(C)CN(C)C3)c2)cs1` (some centres unmarked) [Example 36], for which the IC50 came out at 61.7 nM. On to `CC(C)c1ccc([C@](O)(c2cncc(N3CC(C4CC4)CC3=O)c2)C2(C)CN(C)C2)cc1` (some centres unmarked) [Example 218], for which the half-inhibitory concentration (IC50) is 60.4 nM. In the case of `CC(=O)N1CCC(OCc2cncc([C@@](O)(c3ccc(C(C)C)cc3)C3(C)CN(C)C3)c2)CC1` [Example 427], the half-inhibitory concentration (IC50) is 292 nM. Regarding `[2H]C([2H])([2H])C(=O)N1CCC(c2nc(-c3cncc([C@@](O)(c4ccc(C(C)C)cc4)C4(C)CN(C)C4)c3)no2)CC1` [Example 143], the half-maximal inhibitory concentration (IC50) amounted to 188 nM.

Take `CN1CC(C)(C(O)(c2ccc(OC(F)(F)F)cc2)c2cnc(C#N)c(N3CCCC3)c2)C1` (centres unmarked) [Example 267, 5-[(1,3-Dimethyl-azetidin-3-yl)-hydroxy-(4-trifluoromethoxy-phenyl)-methyl]-3-pyrrolidin-1-yl-pyridine-2-carbonitrile]: the IC50 is 103 nM. Consider `Cc1cc(C(C)(O)C#Cc2cncc([C@@](O)(c3ccc(C(C)C)cc3)C3(C)CN(C)C3)c2)on1` (some centres unmarked) [Example 648], for which the IC50 was found to be 46.6 nM. `CCN1CC(C)([C@](O)(c2ccc(C(C)C)cc2)c2cncc(-c3noc(C(C)(C)O)n3)c2)C1` [Example 340, 2-(3-{5-[(R)-(1-Ethyl-3-methyl-azetidin-3-yl)-hydroxy-(4-isopropyl-phenyl)-methyl]-pyridin-3-yl}-[1,2,4]oxadiazol-5-yl)-propan-2-ol]: the IC50 is 79.4 nM. As for `CC(C)c1ccc([C@](O)(c2cncc(-c3noc(CN4CCCC4=O)n3)c2)C2(C)CN(C)C2)cc1` [Example 485], the IC50 was 259 nM. The figure for `CC(=O)N1CCC[C@@H](c2nc(-c3cncc([C@@](O)(c4ccc(C(C)C)cc4)C4(C)CN(C)C4)c3)no2)C1` [Example 501, 1-[(R)-3-(3-{5-[(R)-(1,3-Dimethyl-azetidin-3-yl)-hydroxy-(4-isopropyl-phenyl)-methyl]-pyridin-3-yl}-[1,2,4]oxadiazol-5-yl)-piperidin-1-yl]-ethanone] is 108 nM; for `CCOC(=O)N1CCC(c2nc(-c3cncc([C@@](O)(c4ccc(C(C)C)cc4)C4(C)CN(C)C4)c3)no2)CC1` [Example 379] it is 41.2 nM. With `[2H]C([2H])([2H])C(=O)NC1(c2nc(-c3cncc([C@@](O)(c4ccc(C(C)C)cc4)C4(C)CN(C)C4)c3)no2)CC1` [Example 332], the 50% inhibitory concentration (IC50) is 290 nM. On to `CN1CC(C)(C(O)(c2ccc(OC(F)(F)F)cc2)c2ccc(OC3CCOCC3)nc2)C1` (centres unmarked) [Example 268, (1,3-Dimethyl-azetidin-3-yl)-[6-(tetrahydro-pyran-4-yloxy)-pyridin-3-yl]-(4-trifluoromethoxy-phenyl)-methanol], for which the IC50 was found to be 99.3 nM. Turning to `CN1CC(C)(C(O)(c2ccc(C3(C)CC3)cc2)c2cncc(N3CCCC3)c2)C1` (centres unmarked) [Example 160], the IC50 came to 82.9 nM. The value for `CC(C)c1ccc([C@](O)(c2cncc(-c3noc(CC4CCCO4)n3)c2)C2(C)CN(C)C2)cc1` (some centres unmarked) [Example 116] was 40.8 nM; that for `CC(C)c1ccc([C@](O)(c2cncc(C3CCCO3)c2)C2(C)CN(C)C2)cc1` (stereo partly drawn) [Example 318, (R)-(1,3-Dimethyl-azetidin-3-yl)-(4-isopropyl-phenyl)-[5-(tetrahydro-furan-2-yl)-pyridin-3-yl]-methanol] was 154 nM.

As to `CC(C)c1ccc(C(O)(c2cncc(C3CCCC3)c2)C2(C)CN(C)C2)cc1` (centres unmarked) [Example 291], the IC50 was found to be 24.8 nM.

`CC(C)c1ccc(C(O)(c2cccc(N3CCCC3)n2)C2(C)CN(C)C2)cc1` (centres unmarked) [Example 421, (1,3-Dimethyl-azetidin-3-yl)-(4-isopropyl-phenyl)-(6-pyrrolidin-1-yl-pyridin-2-yl)-methanol]: the half-maximal inhibitory concentration (IC50) is 712 nM. As for `CC(C)c1ccc([C@](O)(c2cncc(-c3noc(C4(O)CC4)n3)c2)C2(C)CN(C)C2)cc1` [Example 120], the IC50 stood at 59.2 nM.

With `CC(C)c1ccc([C@](O)(c2cncc(-c3noc(C4CCN(Cc5ccccc5)C4=O)n3)c2)C2(C)CN(C)C2)cc1` (some centres unmarked) [Example 351], the 50% inhibitory concentration (IC50) was found to be 27.6 nM. The figure for `CC(C)c1ccc([C@](O)(c2cncc(N3CCC(C(F)(F)F)C3)c2)C2(C)CN(C)C2)cc1` (some centres unmarked) [Example 238] is 22.4 nM; for `Cc1cncc(C(C)(O)CCc2cncc([C@@](O)(c3ccc(C(C)C)cc3)C3(C)CN(C)C3)c2)c1` (some centres unmarked) [Example 417] it is 118 nM; for `CC(C)c1ccc([C@](O)(c2cncc(OCC(C)(C)O)c2)C2(C)CN(C)C2)cc1` [Example 252] it is 238 nM. Regarding `CCc1ccc([C@](O)(c2cncc(N3CCCC3)c2)C2(C)CN(C)C2)cc1` [Example 242], the IC50 stood at 22.1 nM.

With `CC(C)c1ccc([C@](O)(c2cncc(C3=CC(C)(O)CC3)c2)C2(C)CN(C)C2)cc1` (stereo partly drawn) [Example 295, 3-{5-[(R)-(1,3-Dimethyl-azetidin-3-yl)-hydroxy-(4-isopropyl-phenyl)-methyl]-pyridin-3-yl}-1-methyl-cyclopent-2-enol], the IC50 turned out to be 61.1 nM. For `Cc1cc(C(C)(O)C#Cc2cncc([C@@](O)(c3ccc(C(C)C)cc3)C3(C)CN(C)C3)c2)nn1C` (some centres unmarked) [Example 39], the half-inhibitory concentration (IC50) is 76.5 nM. As for `CC(C)c1ccc([C@](O)(c2cncc(C3=CC(=O)CC3)c2)C2(C)CN(C)C2)cc1` [Example 294, 3-{5-[(R)-(1,3-Dimethyl-azetidin-3-yl)-hydroxy-(4-isopropyl-phenyl)-methyl]-pyridin-3-yl}-cyclopent-2-enone], the IC50 stood at 49.4 nM.

Turning to `COCCOc1cc([C@@](O)(c2ccc(C(C)C)cc2)C2(C)CN(C)C2)ccn1` [Example 278, (S)-(1,3-Dimethyl-azetidin-3-yl)-(4-isopropyl-phenyl)-[2-(2-methoxy-ethoxy)-pyridin-4-yl]-methanol], the concentration for half-maximal inhibition (IC50) amounted to 48.9 nM. In the case of `CC(C)c1ccc([C@](O)(c2cncc(CCC3(O)CCOCC3)c2)C2(C)CN(C)C2)cc1` [Example 62], the 50% inhibitory concentration (IC50) is 242 nM. As for `COCC(=O)N1CCC(c2nc(-c3cncc([C@@](O)(c4ccc(C(C)C)cc4)C4(C)CN(C)C4)c3)no2)CC1` [Example 372], the IC50 was 103 nM. The value for `CC(C)c1ccc([C@](O)(c2cncc(-c3noc(CN4C(=O)CC(C)(C)C4=O)n3)c2)C2(C)CN(C)C2)cc1` [Example 483] was 73.1 nM; that for `CNC1(c2nc(-c3cncc([C@@](O)(c4ccc(C(C)C)cc4)C4(C)CN(C)C4)c3)no2)CC1` [Example 389, (R)-(1,3-Dimethyl-azetidin-3-yl)-(4-isopropyl-phenyl)-{5-[5-(1-methylamino-cyclopropyl)-[1,2,4]oxadiazol-3-yl]-pyridin-3-yl}-methanol] was 58.1 nM; that for `CCC(=O)NC(C)(C)Cc1nc(-c2cncc([C@@](O)(c3ccc(C(C)C)cc3)C3(C)CN(C)C3)c2)no1` [Example 464, N-[2-(3-{5-[(R)-(1,3-Dimethyl-azetidin-3-yl)-hydroxy-(4-isopropyl-phenyl)-methyl]-pyridin-3-yl}-[1,2,4]oxadiazol-5-yl)-1,1-dimethyl-ethyl]-propionamide] was 129 nM.

In the case of `CC(C)c1ccc([C@](O)(c2cncc(C#CC(O)C3CCOCC3)c2)C2(C)CN(C)C2)cc1` (some centres unmarked) [Example 28], the concentration for half-maximal inhibition (IC50) worked out at 44.6 nM. As for `COC1(c2noc(-c3cncc([C@@](O)(c4ccc(C5CC5)cc4)C4(C)CN(C)C4)c3)n2)CCOCC1` [Example 95, (R)-(4-Cyclopropyl-phenyl)-(1,3-dimethyl-azetidin-3-yl)-{5-[3-(4-methoxy-tetrahydro-pyran-4-yl)-[1,2,4]oxadiazol-5-yl]-pyridin-3-yl}-methanol], the half-maximal inhibitory concentration (IC50) is 196 nM.
